16 compounds from patent US9416125B2, “Substituted cycloalkenopyrazoles as BUB1 inhibitors for the treatment of cancer” (BAYER PHARMA AKTIENGESELLSCHAFT, priority 2012, dated 2016) can be followed below.

Each structure is given as a SMILES string.

The target of test [1] is T1, catalytic domain of human Bub1 (amino acids 704-1085) (Homo sapiens, UniProt O43683).
T1 construct: catalytic domain of human Bub1 (amino acids 704-1085); His6 (N); made in house; host or cells: Hi5 insect cells
Briefly: Bub1 kinase assay (TR-FRET). Format: biochemical. The settings on record: 10 μM ATP, 1 μM peptide substrate, median, read-out: Biological Assay 1: Bub1 kinase assay median IC50. The source says:
Bub1-inhibitory activities of compounds described in the present invention were quantified using a time-resolved fluorescence energy transfer (TR-FRET) kinase assay which measures phosphorylation of the synthetic peptide Biotin-Ahx-VLLPKKSFAEPG (C-terminus in amide form), purchased from e.g. Biosyntan (Berlin, Germany) by the (recombinant) catalytic domain of human Bub1 (amino acids 704-1085), expressed in Hi5 insect cells with an N-terminal His6-tag and purified by affinity- (Ni-NTA) and size exclusion chromatography.
In a typical assay 11 different concentrations of each compound (0.1 nM, 0.33 nM, 1.1 nM, 3.8 nM, 13 nM, 44 nM, 0.15 μM, 0.51 μM, 1.7 μM, 5.9 μM and 20 μM) were tested in duplicate within the same microtiter plate. To this end, 100-fold concentrated compound solutions (in DMSO) were previously prepared by serial dilution (1:3.4) of 2 mM stocks in a clear low volume 384-well source microtiter plate (Greiner Bio-One, Frickenhausen, Germany), from which 50 nL of compounds were transferred into a black low volume test microtiter plate from the same supplier. Subsequently, 2 μL of Bub1 (the final concentration of Bub1 was adjusted depending on the activity of the enzyme lot in order to be within the linear dynamic range of the assay: typically ˜200 ng/mL were used) in aqueous assay buffer [50 mM Tris/HCl pH 7.5, 10 mM magnesium chloride (MgCl2), 200 mM potassium chloride (KCl), 1.0 mM dithiothreitol (DTT), 0.1 mM sodium ortho-vanadate, 1% (v/v) glycerol, 0.01% (w/v) bovine serum albumine (BSA), 0.005% (v/v) Trition X-100 (Sigma), 1× Complete EDTA-free protease inhibitor mixture (Roche)] were added to the compounds in the test plate and the mixture was incubated for 15 min at 22° C. to allow pre-equilibration of the putative enzyme-inhibitor complexes before the start of the kinase reaction, which was initiated by the addition of 3 μL 1.67-fold concentrated solution (in assay buffer) of adenosine-tri-phosphate (ATP, 10 μM final concentration) and peptide substrate (1 μM final concentration). The resulting mixture (5 μL final volume) was incubated at 22° C. during 60 min, and the reaction was stopped by the addition of 5 μL of an aqueous EDTA-solution (50 mM EDTA, in 100 mM HEPES pH 7.5 and 0.2% (w/v) bovine serum albumin) which also contained the TR-FRET detection reagents (0.2 μM streptavidin-XL665 [Cisbio Bioassays, Codolet, France] and 1 nM anti-phosho-Serine antibody [Merck Millipore, cat. #35-001] and 0.4 nM LANCE EU-W1024 labeled anti-mouse IgG antibody [Perkin-Elmer, product no. AD0077, alternatively a Terbium-cryptate-labeled anti-mouse IgG antibody from Cisbio Bioassays can be used]). The stopped reaction mixture was further incubated 1 h at 22° C. in order to allow the formation of complexes between peptides and detection reagents. Subsequently, the amount of product was evaluated by measurement of the resonance energy transfer from the Eu-chelate-antibody complex recognizing the Phosphoserine residue to the streptavidin-XL665 bound to the biotin moiety of the peptide. To this end, the fluorescence emissions at 620 nm and 665 nm after excitation at 330-350 nm were measured in GTR-FRET plate reader, e.g. a Rubystar or Pherastar (both from BMG Labtechnologies, Offenburg, Germany) or a Viewlux (Perkin-Elmer) and the ratio of the emissions (665 nm/622 nm) was taken as indicator for the amount of phosphorylated substrate. The data were normalised using two sets of (typically 32-) control wells for high- (=enzyme reaction without inhibitor=0%=Minimum inhibition) and low- (=all assay components without enzyme=100%=Maximum inhibition) Bub1 activity. IC50 values were calculated by fitting the normalized inhibition data to a 4-parameter logistic equation (Minimum, Maximum, IC50, Hill; Y=Max+(Min−Max)/(1+(X/IC50)Hill)).

Another test deals with HeLa cell line. Briefly: Proliferation assay (crystal violet staining). Format: cell-based. The note with it: Homo sapiens, 96 h, 4 days incubation, range 0.001-10 μM, median, read-out: Biological Assay 2: Proliferation assay (HeLa cell line) median IC50. As to the method:
Cultivated tumor cells (cells were ordered from ATCC, except HeLa-MaTu and HeLa-MaTu-ADR, which were ordered from EPO-GmbH, Berlin) were plated at a density of 1000 to 5000 cells/well, depending on the growth rate of the respective cell line, in a 96-well multititer plate in 200 μL of their respective growth medium supplemented 10% fetal calf serum. After 24 h, the cells of one plate (zero-point plate) were stained with crystal violet (see below), while the medium of the other plates was replaced by fresh culture medium (200 μL), to which the test substances were added in various concentrations (0 μM, as well as in the range of 0.001-10 μM; the final concentration of the solvent DMSO was 0.5%). The cells were incubated for 4 days in the presence of test substances. Cell proliferation was determined by staining the cells with crystal violet: the cells were fixed by adding 20 μL/measuring point of an 11% glutaric aldehyde solution for 15 min at rt. After three washing cycles of the fixed cells with water, the plates were dried at rt. The cells were stained by adding 100 μL/measuring point of a 0.1% crystal violet solution (pH 3.0). After three washing cycles of the stained cells with water, the plates were dried at rt. The dye was dissolved by adding 100 μL/measuring point of a 10% acetic acid solution. Absorbtion was determined by photometry at a wavelength of 595 nm. The change of cell number, in percent, was calculated by normalization of the measured values to the aborbtion values of the zero-point plate (=0%) and the absorbtion of the untreated (0 μm) cells (=100%). The IC50 values were determined by means of a 4 parameter fit.

T1 sequence (O43683 704-1085): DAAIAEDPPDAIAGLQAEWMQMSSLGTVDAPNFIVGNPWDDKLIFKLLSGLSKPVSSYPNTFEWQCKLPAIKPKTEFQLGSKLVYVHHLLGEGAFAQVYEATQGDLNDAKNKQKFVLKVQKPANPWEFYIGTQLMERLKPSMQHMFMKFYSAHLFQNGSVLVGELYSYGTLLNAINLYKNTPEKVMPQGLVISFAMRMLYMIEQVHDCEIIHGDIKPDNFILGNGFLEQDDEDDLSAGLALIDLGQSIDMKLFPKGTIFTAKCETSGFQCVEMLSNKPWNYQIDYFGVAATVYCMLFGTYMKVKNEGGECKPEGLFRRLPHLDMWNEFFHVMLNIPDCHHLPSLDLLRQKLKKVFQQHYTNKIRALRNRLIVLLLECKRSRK

For `COc1c(NC(C)=O)nc(-c2nn(Cc3ccccc3F)c3c2CCC3)nc1Nc1ccncc1` [Example 2-1-11, N-{2-[1-(2-fluoro-benzyl)-1,4,5,6-tetrahydrocyclopenta [c]pyrazol-3-yl]-5-methoxy-6-(pyridin-4-ylamino)pyrimidin-4-yl}acetamide], the IC50 in test [1] was found to be 0.12 µM. Consider `N#Cc1cnccc1Nc1nc(-c2nn(Cc3ccccc3F)c3c2CCC3)ncc1O` [Example 2-2-2, 4-({2-[1-(2-fluoro-benzyl)-1,4,5,6-tetrahydrocyclopenta [c]pyrazol-3-yl]-5-hydroxy-pyrimidin-4-yl}amino) nicotinonitrile], for which the IC50 is 0.07 µM in test [1] and 6 µM with HeLa cell line. The matching figures for `COCC(=O)Nc1nc(-c2nn(Cc3ccccc3F)c3c2CCC3)nc(Nc2ccncc2)c1OC` [Example 2-1-10, N-{2-[1-(2-fluorobenzyl)-1,4,5,6-tetrahydrocyclopenta[c]pyrazol-3-yl]-5-methoxy-6-(pyridin-4-ylamino)pyrimidin-4-yl}-2-methoxyacetamide]: 0.3 µM and no less than 10 µM. On to `CCOC(=O)c1cnccc1Nc1nc(-c2nn(Cc3ccccc3F)c3c2CCC3)ncc1OCC1(CO)COC1` [Example 2-3-4, ethyl 4-[(2-[1-(2-fluoro-benzyl)-1,4,5,6-tetrahydrocyclopenta [c]pyrazol-3-yl]-5-{[3-(hydroxymethyl)oxetan-3-yl]methoxy}pyrimidin-4-yl)amino] nicotinate], for which the IC50 in test [1] is 0.04 µM; with HeLa cell line, no less than 10 µM. The matching figures for `CCOc1cc(F)c(Cn2nc(-c3ncc(OCC4(CO)COC4)c(Nc4ccncc4)n3)c3c2CCC3)c(F)c1` [Example 2-3-2, {3-[({2-[1-(4-ethoxy-2,6-difluoro-benzyl)-1,4,5,6-tetrahydrocyclopenta [c]pyrazol-3-yl]-4-(pyridin-4-ylamino)pyrimidin-5-yl}oxy)methyl]oxetan-3-yl}methanol]: 0.006 µM and no less than 10 µM. The matching figures for `N#Cc1cnccc1Nc1nc(-c2nn(Cc3ccccc3F)c3c2CCC3)ncc1OCC1(CO)COC1` [Example 2-3-5, 4-[(2-[1-(2-fluoro-benzyl)-1,4,5,6-tetrahydrocyclopenta [c]pyrazol-3-yl]-5-{[3-(hydroxymethyl)oxetan-3-yl]methoxy}pyrimidin-4-yl)amino] nicotinonitrile]: 0.04 µM and 4 µM. The matching figures for `CCOc1cc(F)c(Cn2nc(-c3ncc(O)c(N(CCN(C)C)c4ccncc4)n3)c3c2CCC3)c(F)c1` [Example 2-4-1, 4-{[2-(dimethylamino)ethyl](pyridin-4-yl)amino}-2-[1-(4-ethoxy-2,6-difluorobenzyl)-1,4,5,6-tetrahydrocyclopenta[c]pyrazol-3-yl]pyrimidin-5-ol]: 0.2 µM and no less than 10 µM. `COc1cnc(-c2nn(Cc3ccccc3F)c3c2CCC3)nc1Nc1ccncc1` [Example 2-1-6, 2-[1-(2-fluoro-benzyl)-1,4,5,6-tetrahydrocyclopenta [c]pyrazol-3-yl]-5-methoxy-N-(pyridin-4-yl)pyrimidin-4-amine]: the IC50 in test [1] was 0.1 µM; in the test on HeLa cell line, no less than 10 µM. The matching figures for `COc1cnc(-c2nn(Cc3ccccc3F)c3c2CCC3)nc1Nc1ccncc1C#N` [Example 2-1-7, 4-({2-[1-(2-fluoro-benzyl)-1,4,5,6-tetrahydrocyclopenta [c]pyrazol-3-yl]-5-methoxy-pyrimidin-4-yl}amino) nicotinonitrile]: 0.2 µM and no less than 10 µM. The matching figures for `CCOc1cc(F)c(Cn2nc(-c3ncc(OCCN(C)C)c(Nc4ccncc4)n3)c3c2CCC3)c(F)c1` [Example 2-3-1, 5-[2-(dimethylamino)ethoxy]-2-[1-(4-ethoxy-2,6-difluorobenzyl)-1,4,5,6-tetrahydrocyclopenta[c]pyrazol-3-yl]-N-(pyridin-4-yl)pyrimidin-4-amine]: 0.009 µM and 1 µM. As for `Fc1ccccc1Cn1nc(-c2nc(Nc3ccncc3)c(N3CCOCC3)c(Nc3ccncc3)n2)c2c1CCC2` [Example 2-1-8, 2-[1-(2-fluoro-benzyl)-1,4,5,6-tetrahydrocyclopenta[c]pyrazol-3-yl]-5-(morpholin-4-yl)-N,N′-di(pyridin-4-yl)pyrimidin-4,6-diamine], the IC50 in test [1] is 3 µM.

For `Nc1nc(-c2nn(Cc3ccccc3F)c3c2CCC3)nc(Nc2ccncc2)c1N1CCOCC1` [Example 2-1-5, 2-[1-(2-fluoro-benzyl)-1,4,5,6-tetrahydrocyclopenta [c]pyrazol-3-yl]-5-(morpholin-4-yl)-N-(pyridin-4-yl)pyrimidin-4,6-diamine], the IC50 in test [1] is 0.1 µM. On the same count and under the same terms, in the case of `CCOc1cc(F)c(Cn2nc(-c3ncc(OCCO[Si](C)(C)C(C)(C)C)c(Nc4ccncc4)n3)c3c2CCC3)c(F)c1` [Example 2-3-6, 5-(2-{[tert-butyl (dimethyl)silyl]oxy}ethoxy)-2-[1-(4-ethoxy-2,6-difluoro-benzyl)-1,4,5,6-tetrahydrocyclopenta [c]pyrazol-3-yl]-N-(pyridin-4-yl)pyrimidin-4-amine] it was 0.1 µM; in that of `CSCCOc1cnc(-c2nn(Cc3ccccc3F)c3c2CCC3)nc1Nc1ccncc1C(N)=O` [Example 2-3-8, 4-({2-[1-(2-fluoro-benzyl)-1,4,5,6-tetrahydrocyclopenta [c]pyrazol-3-yl]-5-[2-(methyl-sulfanyl)ethoxy]pyrimidin-4-yl}amino) nicotinamide], 0.02 µM; in that of `CCOC(=O)c1cnccc1Nc1nc(-c2nn(Cc3ccccc3F)c3c2CCC3)ncc1Oc1ccncc1C(=O)OCC` [Example 2-9-1, ethyl 4-[(4-{[3-(ethoxycarbonyl)pyridin-4-yl]amino}-2-[1-(2-fluorobenzyl)-1,4,5,6-tetrahydrocyclopenta[c]pyrazol-3-yl]pyrimidin-5-yl)oxy]nicotinate], 0.5 µM. For the compound `COCC(=O)N(c1ccncc1)c1nc(-c2nn(Cc3ccccc3F)c3c2CCC3)nc(N)c1OC` [Example 2-12-1, N-{6-amino-2-[1-(2-fluorobenzyl)-1,4,5,6-tetrahydrocyclopenta[c]-pyrazol-3-yl]-5-methoxypyrimidin-4-yl}-2-methoxy-N-(pyridin-4-yl)acetamide], in test [1], the IC50 was 6 µM.
